Measurements as given in patent US5939409A, “Processes for the production of anti-inflammatory steroids” (priority 1991, dated 1999).

Assays:
[1] = system: Sephadex induced lung edema (left lung lobe); experiment: Local antiinflammatory activity on airway mucosa (left lung lobe), Sephadex induced lung edema, local instillation; format: in vivo, Sprague Dawley rat; details: rat; for ED50 (left lung administration), left lung lobe: required glucocorticosteroid dose to reduce the edema by 50% / ED50: left lung instillation 2 h before Sephadex (5 mg/kg), left lung lobe weighed 20 h later, relative to Sephadex control group; for ED50: read-out: ED50 (left lung administration), left lung lobe: required glucocorticosteroid dose to reduce the edema by 50%
Protocol: A. Test model for desired local antiinflammatory activity on airway mucosa (left lung lobe)
Sprague Dawley rats (250 g) were slightly anaesthetized with Ephrane and the glucocorticosteroid test preparation (suspended in saline) in a volume of 0.5 ml/kg was instilled into just the left lung lobe. Two hours later a suspension of Sephadex (5 mg/kg in a volume of 1 ml/kg) was instilled under slight anaesthesia in the trachea well above the bifurcation so that the suspension reached both the left and right lung lobes. Twenty hours later the rats were killed and the left lung lobes dissected out and weighed. Control groups got saline instead of glucocorticosteroid preparation and saline instead of Sephadex suspension to determine the weight of non-drug treated Sephadex edema and the normal lung weight.

[2] = system: Sephadex induced lung edema (lung); experiment: Unwanted systemic effect by orally absorbed glucocorticosteroid, Sephadex induced lung edema; format: in vivo, Sprague Dawley rat; details: for ED50: po, read-out: ED50 (p.o. administration), lung: required glucocorticosteroid dose to reduce the edema by 50%; for ED50 / ED50 (p.o. administration), lung: required glucocorticosteroid dose to reduce the edema by 50%: rat, p.o. 2 h before Sephadex (5 mg/kg), lung lobes weighed 20 h later, relative to Sephadex control group; for dose required to inhibit lung edema (ED50) by oral administration relative to dose needed by local application to the lung (lung selectivity): ratio oral ED50 / local lung ED50, rat
Protocol: B. Test model for unwanted systemic effect by orally absorbed glucocorticosteroid
Sprague Dawley rats (250 g) were slightly anaesthetized with Ephrane and after that the GCS test preparation in a volume of 0,5 ml/kg was given orally. Two hours later a suspension of Sephadex (5 mg/kg in a volume of 1 ml/kg) was instilled in the trachea well above the bifurcation so that the suspension reached both the left and the right lung lobes. Twenty hours later, the rats were killed and the lung lobes were weighed. Control groups got saline instead of glucocorticosteroid preparation and saline instead of Sephadex suspension to determine the weight of non-drug treated Sephadex edema and the normal weight.

CCC[C@@H]1O[C@@H]2C[C@H]3[C@@H]4C[C@H](F)C5=CC(=O)CC[C@]5(C)[C@@]4(F)[C@@H](O)C[C@]3(C)[C@]2(C(=O)CO)O1 [Example 6, (22R)-16α,17α-butylidenedioxy-6α,9α-difluoro-11β,21-dihydroxypregn-4-ene-3,20-dione]
local antiinflammatory activity compared with budesonide ([1]; in words, left lung administration): much higher local antiinflammatory activity than budesonide | ED50 (left lung administration), left lung lobe: required glucocorticosteroid dose to reduce the edema by 50% [1]: 10 nmol/kg | ED50 [1]: 0.01 µmol/kg | lung selectivity compared to the selected prior art compound (budesonide) ([2]; in words, oral vs local lung ED50, rat): higher lung selectivity | ED50 [2]: 0.32 µmol/kg | ED50 (p.o. administration), lung: required glucocorticosteroid dose to reduce the edema by 50% [2]: 320 nmol/kg | dose required to inhibit lung edema (ED50) by oral administration relative to dose needed by local application to the lung (lung selectivity) [2]: 32 times

CCCC1O[C@@H]2C[C@H]3[C@@H]4CCC5=CC(=O)C=C[C@]5(C)[C@H]4[C@@H](O)C[C@]3(C)[C@]2(C(=O)CO)O1 (stereo partly drawn) [Budesonide, reference compound]
ED50 (left lung administration), left lung lobe: required glucocorticosteroid dose to reduce the edema by 50% [1]: 300 nmol/kg | ED50 [1]: 0.3 µmol/kg | ED50 [2]: 4 µmol/kg | ED50 (p.o. administration), lung: required glucocorticosteroid dose to reduce the edema by 50% [2]: 4000 nmol/kg | dose required to inhibit lung edema (ED50) by oral administration relative to dose needed by local application to the lung (lung selectivity) [2]: 13 times
